Experimental data published in US12528814B2, “Bifunctional degraders of interleukin-1 receptor-associated kinases and therapeutic use thereof” (NURIX THERAPEUTICS, INC., priority 2020, dated 2026).
Like-named read-outs stand apart in the source and are kept apart here.

What was measured:
IRAK4 [1] = target: T1, IRAK4 (Homo sapiens (Human), UniProt Q9NWZ3); assay: IRAK4 Biochemical HTRF Kinase Assay; conditions: read-out: IRAK4 HTRF biochemical: IC50
Summary of the method: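 IC50 values derive from non-linear regression of sixteen concentrations in duplicate. Kinase reaction ran 90 min at ambient temperature after adding 5 μM STK-S1 substrate, 10 mM ATP and 10 mM MgCl2 (reaction-solution levels, pre-dilution to 10 μl); phospho-peptide detected by HTRF after 60 min.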
Target sequence in this assay (Q9NWZ3 whole entry, species assumed): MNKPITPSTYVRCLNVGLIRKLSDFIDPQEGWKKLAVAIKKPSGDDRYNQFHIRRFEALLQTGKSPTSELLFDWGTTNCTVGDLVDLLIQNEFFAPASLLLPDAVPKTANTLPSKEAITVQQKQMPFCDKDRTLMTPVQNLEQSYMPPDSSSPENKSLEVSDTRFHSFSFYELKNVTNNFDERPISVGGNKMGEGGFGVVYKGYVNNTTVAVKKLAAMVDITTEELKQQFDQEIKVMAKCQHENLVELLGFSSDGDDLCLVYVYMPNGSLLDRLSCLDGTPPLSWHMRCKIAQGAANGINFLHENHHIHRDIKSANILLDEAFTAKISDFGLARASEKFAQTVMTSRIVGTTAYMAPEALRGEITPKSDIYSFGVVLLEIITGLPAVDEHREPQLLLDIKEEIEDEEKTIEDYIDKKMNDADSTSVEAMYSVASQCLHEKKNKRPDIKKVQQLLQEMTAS

IRAK4 [2] = target: T1, IRAK4; assay: IRAK4 Degradation HiBiT Assay; conditions: HiBiT-tagged Jurkat cells, 4 hrs; for Dmax: Jurkat; for DC50: read-out: Cellular IRAK4 HiBiT: DC50
Target sequence in this assay (Q9NWZ3 whole entry): as the sequence (Q9NWZ3 whole entry, species assumed) above

[3] = read-out: Cellular IRAK4 HiBiT: Dmax, Table 4
[4] = read-out: Cellular IRAK4 HiBiT: Dmax, Table 5, multiple runs

Row | SMILES | IC50 (IRAK4 [1]; Table 4) [nM] | IC50 (IRAK4 [1]; Table 5, multiple runs) [nM] | Dmax (IRAK4 [2]; [3]) [%] | Dmax (IRAK4 [2]; [4]) [%] | DC50 (IRAK4 [2]; Table 4) [nM] | DC50 (IRAK4 [2]; Table 5, multiple runs) [nM]
1 | CNc1cc(-c2ccc3cc(C#N)cnn23)ncc1-c1nnc([C@H]2CC[C@H](NC(=O)CCOCCC(=O)N[C@H](C(=O)N3C[C@H](O)C[C@H]3C(=O)N[C@@H](C)c3ccc(-c4scnc4C)cc3)C(C)(C)C)CC2)s1 [Example 61, (2S,4R)-1-((S)-2-(3-(3-(((1r,4S)-4-(5-(6-(3-cyanopyrrolo[1,2-b]pyridazin-7-yl)-4-(methylamino)pyridin-3-yl)-1,3,4-thiadiazol-2-yl)cyclohexyl)amino)-3-oxopropoxy)propanamido)-3,3-dimethylbutanoyl)-4-hydroxy-N—((S)-1-(4-(4-methylthiazol-5-yl)phenyl)ethyl)pyrrolidine-2-carboxamide] | 3.98 | 4 | 117 | 121 | 591 | 399
2 | CNc1cc(-c2ccc3cc(C#N)cnn23)ncc1-c1nnc([C@H]2CC[C@H](NC(=O)CCCCCC(=O)N[C@H](C(=O)N3C[C@H](O)C[C@H]3C(=O)N[C@@H](C)c3ccc(-c4scnc4C)cc3)C(C)(C)C)CC2)s1 [Example 62, N1-((1r,4S)-4-(5-(6-(3-cyanopyrrolo[1,2-b]pyridazin-7-yl)-4-(methylamino)pyridin-3-yl)-1,3,4-thiadiazol-2-yl)cyclohexyl)-N7—((S)-1-((2S,4R)-4-hydroxy-2-(((S)-1-(4-(4-methylthiazol-5-yl)phenyl)ethyl)carbamoyl)pyrrolidin-1-yl)-3,3-dimethyl-1-oxobutan-2-yl)heptanediamide] | 1.51 | 1.5 | 103 | 111 | 74.5 | 58.2
3 | CNc1cc(-c2ccc3cc(C#N)cnn23)ncc1-c1nnc([C@H]2CC[C@H](NC(=O)CCOCCNc3ccc4c(c3)C(=O)N(C3CCC(=O)NC3=O)C4=O)CC2)s1 (stereo partly drawn) [Example 63, N-((1r,4r)-4-(5-(6-(3-cyanopyrrolo[1,2-b]pyridazin-7-yl)-4-(methylamino)pyridin-3-yl)-1,3,4-thiadiazol-2-yl)cyclohexyl)-3-(2-((2-(2,6-dioxopiperidin-3-yl)-1,3-dioxoisoindolin-5-yl)amino)ethoxy)propanamide] | 0.7 | 0.6 | 80 | 85 | 8.1 | 7.6
4 | CNc1cc(-c2ccc3cc(C#N)cnn23)ncc1-c1nnc([C@H]2CC[C@H](NC(=O)CN3CCC4(CC3)CN(c3ccc5c(c3)C(=O)N(C3CCC(=O)NC3=O)C5=O)C4)CC2)s1 (stereo partly drawn) [Example 64, N-((1r,4r)-4-(5-(6-(3-cyanopyrrolo[1,2-b]pyridazin-7-yl)-4-(methylamino)pyridin-3-yl)-1,3,4-thiadiazol-2-yl)cyclohexyl)-2-(2-(2-(2,6-dioxopiperidin-3-yl)-1,3-dioxoisoindolin-5-yl)-2,7-diazaspiro[3.5]nonan-7-yl)acetamide] | 0.89 | 0.8 | 110 | 112 | 17.3 | 14.9
5 | CNc1cc(-c2ccc3cc(C#N)cnn23)ncc1-c1nnc([C@H]2CC[C@H](NC(=O)CN3CCN(c4ccc5c(c4)C(=O)N(C4CCC(=O)NC4=O)C5=O)CC3)CC2)s1 (stereo partly drawn) [Example 65, N-((1r,4r)-4-(5-(6-(3-cyanopyrrolo[1,2-b]pyridazin-7-yl)-4-(methylamino)pyridin-3-yl)-1,3,4-thiadiazol-2-yl)cyclohexyl)-2-(4-(2-(2,6-dioxopiperidin-3-yl)-1,3-dioxoisoindolin-5-yl)piperazin-1-yl)acetamide] | 0.95 | 0.8 | 109 | 111 | 5.1 | 16.9
6 | CNc1cc(-c2ccc3cc(C#N)cnn23)ncc1-c1nnc([C@H]2CC[C@H](NC(=O)CCCCCNc3ccc4c(c3)C(=O)N(C3CCC(=O)NC3=O)C4=O)CC2)s1 (stereo partly drawn) [Example 68, N-((1r,4r)-4-(5-(6-(3-cyanopyrrolo[1,2-b]pyridazin-7-yl)-4-(methylamino)pyridin-3-yl)-1,3,4-thiadiazol-2-yl)cyclohexyl)-6-((2-(2,6-dioxopiperidin-3-yl)-1,3-dioxoisoindolin-5-yl)amino)hexanamide] | 1.79 | 0.8 | 82 | 101 | 47.5 | 14.3
7 | CNc1cc(-c2ccc3cc(C#N)cnn23)ncc1-c1nnc([C@H]2CC[C@H](NC(=O)[C@H]3C[C@@H](OCCNc4cccc5c4C(=O)N(C4CCC(=O)NC4=O)C5=O)C3)CC2)s1 (stereo partly drawn) [Example 69, (1s,3S)—N-((1r,4R)-4-(5-(6-(3-cyanopyrrolo[1,2-b]pyridazin-7-yl)-4-(methylamino)pyridin-3-yl)-1,3,4-thiadiazol-2-yl)cyclohexyl)-3-(2-((2-(2,6-dioxopiperidin-3-yl)-1,3-dioxoisoindolin-4-yl)amino)ethoxy)cyclobutane-1-carboxamide] | 0.81 | 0.9 | 98 | 73 | 12.6 | 6.71
8 | CNc1cc(-c2ccc3cc(C#N)cnn23)ncc1-c1nnc([C@H]2CC[C@H](NC(=O)CCOCCOCCOCCNc3cccc4c3C(=O)N(C3CCC(=O)NC3=O)C4=O)CC2)s1 (stereo partly drawn) [Example 70, N-((1r,4r)-4-(5-(6-(3-cyanopyrrolo[1,2-b]pyridazin-7-yl)-4-(methylamino)pyridin-3-yl)-1,3,4-thiadiazol-2-yl)cyclohexyl)-3-(2-(2-(2-((2-(2,6-dioxopiperidin-3-yl)-1,3-dioxoisoindolin-4-yl)amino)ethoxy)ethoxy)ethoxy)propenamide] | 0.86 | 0.8 | 68 | 100 | 6.3 | 10.8
9 | CC(C)Nc1cc(-c2ccc3cc(C#N)cnn23)ncc1-c1nnc(N2CCN(CC3CCN(c4ccc5c(=O)n(C6CCC(=O)NC6=O)ccc5c4)CC3)CC2)s1 (stereo not drawn) [Example 72, 7-(5-(5-(4-((1-(2-(2,6-dioxopiperidin-3-yl)-1-oxo-1,2-dihydroisoquinolin-6-yl)piperidin-4-yl)methyl)piperazin-1-yl)-1,3,4-thiadiazol-2-yl)-4-(isopropylamino)pyridin-2-yl)pyrrolo[1,2-b]pyridazine-3-carbonitrile] |  | 3.1 |  | 94 |  | 189

Next, values leading:

Row | IC50 (IRAK4 [1]; Table 4) [nM] | IC50 (IRAK4 [1]; Table 5, multiple runs) [nM] | Dmax (IRAK4 [2]; [3]) [%] | Dmax (IRAK4 [2]; [4]) [%] | DC50 (IRAK4 [2]; Table 4) [nM] | DC50 (IRAK4 [2]; Table 5, multiple runs) [nM] | SMILES
10 | 0.93 | 0.9 | 89 | 101 | 163 | 160 | CNc1cc(-c2ccc3cc(C#N)cnn23)ncc1-c1nnc([C@H]2CC[C@H](NC(=O)CCCC(=O)N[C@H](C(=O)N3C[C@H](O)C[C@H]3C(=O)NCc3ccc(-c4scnc4C)cc3)C(C)(C)C)CC2)s1 [Example 59, N1-((1r,4S)-4-(5-(6-(3-cyanopyrrolo[1,2-b]pyridazin-7-yl)-4-(methylamino)pyridin-3-yl)-1,3,4-thiadiazol-2-yl)cyclohexyl)-N5-((S)-1-((2S,4R)-4-hydroxy-2-((4-(4-methylthiazol-5-yl)benzyl)carbamoyl)pyrrolidin-1-yl)-3,3-dimethyl-1-oxobutan-2-yl)glutaramide]
11 | 3.55 | 3.5 | 105 | 112 | 159 | 111 | CNc1cc(-c2ccc3cc(C#N)cnn23)ncc1-c1nnc([C@H]2CC[C@H](NC(=O)CCCCCOc3cc(-c4scnc4C)ccc3CNC(=O)[C@@H]3C[C@@H](O)CN3C(=O)[C@@H](NC(=O)C3(F)CC3)C(C)(C)C)CC2)s1 [Example 60, (2S,4R)—N-(2-((6-(((1r,4r)-4-(5-(6-(3-cyanopyrrolo[1,2-b]pyridazin-7-yl)-4-(methylamino)pyridin-3-yl)-1,3,4-thiadiazol-2-yl)cyclohexyl)amino)-6-oxohexyl)oxy)-4-(4-methylthiazol-5-yl)benzyl)-1-((S)-2-(1-fluorocyclopropane-1-carboxamido)-3,3-dimethylbutanoyl)-4-hydroxypyrrolidine-2-carboxamide]
12 |  | 1.6 |  | 54 |  | 11.2 | CNc1cc(-c2ccc3cc(C#N)cnn23)ncc1-c1nnc([C@H]2CC[C@H](NC(=O)CCCCCNc3cccc4c3C(=O)N(C3CCC(=O)NC3=O)C4=O)CC2)s1 (stereo partly drawn) [Example 66, N-((1r,4r)-4-(5-(6-(3-cyanopyrrolo[1,2-b]pyridazin-7-yl)-4-(methylamino)pyridin-3-yl)-1,3,4-thiadiazol-2-yl)cyclohexyl)-6-((2-(2,6-dioxopiperidin-3-yl)-1,3-dioxoisoindolin-4-yl)amino)hexanamide]
13 | 1.61 | 1.8 | 53 | 86 | 10.4 | 45.7 | CNc1cc(-c2ccc3cc(C#N)cnn23)ncc1-c1nnc([C@H]2CC[C@H](NC(=O)CCCCCCCNc3ccc4c(c3)C(=O)N(C3CCC(=O)NC3=O)C4=O)CC2)s1 (stereo partly drawn) [Example 67, N-((1r,4r)-4-(5-(6-(3-cyanopyrrolo[1,2-b]pyridazin-7-yl)-4-(methylamino)pyridin-3-yl)-1,3,4-thiadiazol-2-yl)cyclohexyl)-8-((2-(2,6-dioxopiperidin-3-yl)-1,3-dioxoisoindolin-5-yl)amino)octanamide]
14 | 0.77 | 0.8 | 93 | 52 | 12.9 | 5.87 | CNc1cc(-c2ccc3cc(C#N)cnn23)ncc1-c1nnc([C@H]2CC[C@H](NC(=O)CCOCCNc3cccc4c3C(=O)N(C3CCC(=O)NC3=O)C4=O)CC2)s1 (stereo partly drawn) [Example 71, N-((1r,4r)-4-(5-(6-(3-cyanopyrrolo[1,2-b]pyridazin-7-yl)-4-(methylamino)pyridin-3-yl)-1,3,4-thiadiazol-2-yl)cyclohexyl)-3-(2-((2-(2,6-dioxopiperidin-3-yl)-1,3-dioxoisoindolin-4-yl)amino)ethoxy)propanamide]
